{
  "source": "patent US9878977B2",
  "about": "“N-((3,4,5-trimethoxystyryl)aryl)cinnamamide compounds as potential anticancer agents and process for the preparation thereof” (COUNCIL OF SCIENTIFIC & INDUSTRIAL RESEARCH, priority 2014, dated 2018)",
  "key": {"[1]": {"tested_on": "Colo-205", "experiment": "SRB anti-proliferative assay, Colo-205", "type": "cell-based, Human", "details": "COLO 205; Human colon cancer; concentration of drug causing 50% inhibition of cell growth; read-out: GI50 Colo-205", "procedure": "(§1) The synthesized N-(3,4,5-trimethoxystyryl)aryl)cinnamamides were evaluated for their anti-proliferative activity in selected human cancer cell lines of breast cancer (MCF-7), prostate cancer (DU-145), lung cancer (Hop-62), cervical cancer (Hela), leukemia (K562), ovarian cancer (SK-OV-3), colon cancer (Colo-205), pancreatic (MAIPA-CA-2) by using sulforhodamine B (SRB) method (Vichai, V.; Kirtikara, K. Nat. Protoc. 2006, 1, 1112). […] CA-4 was used as the reference compound."}, "[2]": {"tested_on": "Hela", "experiment": "SRB anti-proliferative assay, Hela", "type": "cell-based, Human", "details": "Human cervical cancer, concentration of drug causing 50% inhibition of cell growth, read-out: GI50 Hela", "procedure": "as §1"}, "[3]": {"tested_on": "SK-OV-3", "details": "Human ovarian cancer; data from NCI60 dose response (NSC 613729); cited from earlier work"}, "[4]": {"tested_on": "DU-145", "experiment": "SRB anti-proliferative assay, DU-145", "type": "cell-based, Human", "details": "DU-145; Human prostate cancer; concentration of drug causing 50% inhibition of cell growth; read-out: GI50 DU-145", "procedure": "as §1"}, "[5]": {"tested_on": "K562", "details": "Human leukemia; data from NCI60 dose response (NSC 613729); cited from earlier work"}, "[6]": {"tested_on": "MCF-7", "experiment": "SRB anti-proliferative assay, MCF-7", "type": "cell-based, Human", "details": "MCF7; Human breast cancer; concentration of drug causing 50% inhibition of cell growth; read-out: GI50 MCF-7", "procedure": "as §1"}, "[7]": {"tested_on": "Hop-62", "details": "Human lung cancer; data from NCI60 dose response (NSC 613729); cited from earlier work"}},
  "data": [
    {"smiles": "COc1ccc(/C=C\\c2cc(OC)c(OC)c(OC)c2)cc1O", "note": "[CA-4, combretastatin A4, reference compound]", "values": [
      {"measurement": "GI50", "setting": "[1]", "value": 0.025, "unit": "µM"},
      {"measurement": "GI50", "setting": "[2]", "value": 0.008, "unit": "µM"},
      {"measurement": "GI50", "setting": "[3]", "value": 31.6, "unit": "µM"},
      {"measurement": "GI50", "setting": "[4]", "value": 0.046, "unit": "µM"},
      {"measurement": "GI50", "setting": "[5]", "value": 0.031, "unit": "µM"},
      {"measurement": "GI50", "setting": "[6]", "value": 0.033, "unit": "µM"},
      {"measurement": "GI50", "setting": "[7]", "value": 0.15, "unit": "µM"}
    ]}
  ]
}
